# Assay results as given in patent US20250205276A1, “COMPOSITIONS AND METHODS OF TREATMENT OF DISEASE USING COMBINATION OF A NITRODILATOR AND A NITROGEN OXIDE COMPOUND” (LOMA LINDA UNIVERSITY, priority 2022, published 2025).
# Where two headings read alike, the source gives them in different places.
# Legend:
# [1] = system: isolated sheep mesenteric arteries; experiment: Relaxation of endothelium-denuded sheep mesenteric arteries contracted with 5-HT; format: cell-based; conditions: for enabling of inhibition of vasodilation by CPTIO: SOD1 1000 U/ml, converts HNO into NO
# Method: Isolated sheep mesenteric arteries were denuded of endothelium and contracted with 10 μM 5-HT (n=5). FIG. 5A presents examples of relaxation traces (one animal, six arterial strips) of NTG in the absence and presence of an sGC inhibitor (ODQ) (10 μM) or superoxide dismutase (SOD1) (1000 U/ml, converts HNO into NO), or the extracellular NO scavenger CPTIO (200 μM), or SOD1 and CPTIO together. All traces were normalized for comparison of extent of relaxation.
# FIG. 5B is a graphical representation of the amplification of the area in the red circle in ‘A’. FIG. 5C is a graphical representation of the effects of SOD1, CPTIO, SOD1+CPTIO, and ODQ on relaxation in response to Nitroglycerin. FIG. 5D is a graphical representation of the effects of SOD1, CPTIO, and SOD1+CPTIO on relaxation in response to nitrosoglutathione (GSNO). SOD1, via putative conversion of HNO to NO, enables the inhibitory effects of CPTIO on relaxation caused by NTG and GSNO.
# As discussed above, there are reasons to doubt whether NO itself is the mediator of sGC activation in the NANOS model. Rather, an equivalent of NO may be released by activation of the NANOS. […] The NO equivalent has HNO-like characteristics. […] Isolated sheep mesenteric arteries were denuded of endothelium and contracted with 10 μM 5-HT (n=5). FIG. 5A presents examples of relaxation traces (one animal, six arterial strips) of NTG in the absence and presence of an sGC inhibitor (ODQ) (10 μM) or superoxide dismutase (SOD1) (1000 U/ml, converts HNO into NO, or the extracellular NO scavenger CPTIO (200 μM), or SOD1 and CPTIO together. All traces were normalized for comparison of extent of relaxation. FIG. 5B is a graphical representation of the amplification of the area in the red circle in ‘A’. FIG. 5C is a graphical representation of the effects of SOD1, CPTIO, SOD1+CPTIO, and ODQ on relaxation in response to Nitroglycerin (NTG). FIG. 5D is a graphical representation of the effects of SOD1, CPTIO, and SOD1+CPTIO on relaxation in response to nitrosoglutathione (GSNO). SOD1, via putative conversion of HNO to NO, enables the inhibitory effects of CPTIO on relaxation caused by NTG and GSNO.
# [2] = system: mesenteric vasculature of rats; experiment: Mesenteric vasodilatory response to nitrodilators after chronic pretreatment of rats; format: in vivo; conditions: for effect of pretreatment on mesenteric vasodilatory response to nitrodilators: pretreatment for four days
# Method: (§1) Likewise, NTG has been thought to activate sGC by releasing the NO moiety from its nitrate group via the action of enzymes such as aldehyde dehydrogenase-2. However, this conversion produces nitrite rather than NO, especially at therapeutic NTG concentrations (<1 μM).
# [3] = system: intact rats; experiment: Femoral vasodilation in intact rats treated with L-NAME; format: in vivo; conditions: for femoral vasodilation in response to the SNO: rats treated with L-NAME
# [4] = not told
# [5] = system: intact sheep; experiment: Femoral vasodilation in intact sheep treated with L-NAME; format: in vivo; conditions: for femoral vasodilation in response to the SNO: sheep treated with L-NAME
# [6] = cited from earlier work; for membrane permeability in words: Hogg et al
# [7] = system: sheep carotid artery; experiment: Mobilization of N15-NOx from sheep carotid artery by intraluminal GSNO (GC-MS); conditions: 2 h, vs control
# Method: FIG. 4A is an illustration of the protocol. A sheep carotid artery (length 8 cm) was incubated with 10 μM N^15-nitrite in DMEM under 10.5% O2 for 6 h to load the vessel with N^15-NOx (NO metabolites). FIG. 4B is an illustration of the prepared vessels. After extensive washes, the arteries were well sealed and incubated for 2 h with 3 ml 100 μM oxyhemoglobin in HEPES buffer on the extraluminal side and 5 μM GSNO or control (0.7 ml HEPES buffer containing 0.1 mM DTPA) on the luminal side. FIG. 4C is a graphical representation of the response of the arteries exposed to GSNO. The N^15-NOx levels were lower (p=0.0206) in the homogenate of arteries exposed to GSNO. FIG. 4D is a graphical representation of the response of the arteries exposed to intraluminal GSNO. The N^15-NOx in extraluminal buffer was higher (p=0.0400) in the arteries exposed to intraluminal GSNO. N^15-NOx was measured by GC-MS. The results are consistent with intraluminal GSNO stimulating an efflux of NOx from the vascular smooth muscle as manifested by a decrease in intracellular NOx and an increase in extracellular NOx.
# DNICs function as an intracellular NO store. NO can be stored as DNICs in ferritin, a cytosolic protein that stores and releases iron in controlled fashion. […] N^15-NOx was measured by GC-MS. […]
# [8] = system: isolated sheep femoral arteries; experiment: Use-dependent loss of vasodilatory response to GSNO in isolated arteries, potentiation and reversal; format: cell-based
# Method: To increase the store experimentally, isolated sheep femoral arteries were pre-exposed to 1 μM nitrite, a concentration two-to-three orders of magnitude below which nitrite itself causes vasodilation.
# [9] = Ability to release NO / stability
# [10] = system: isolated arteries; experiment: Vasodilation of isolated arteries (potency, sustainability); format: cell-based; conditions: read-out: EC50 (vasodilatory sensitivity)
# Method: as §1
# [11] = system: newborn lambs; conditions: low micromolar intravenous nitrite
# [12] = system: coronary arteries
# Source text: SNOs, DNICs, heme-NO, nitroprusside, NTG, and other nitrodilators, dilate vessels via activation of soluble guanylyl cyclase (sGC) in vascular smooth muscle cells. These nitrodilators have potent NO-mimetic vasoactivities despite not releasing requisite amounts of free NO. These nitrodilators activate sGC via a preformed NANOS found within the vascular smooth muscle cell. Other examples of the nitrodilators include, but are not limited to, isosorbide dinitrate, isosorbide mononitrate, and nitrosyl complexes with metals or metalloproteins with metals other than iron.
# [13] = system: sGC-cGMP pathway; experiment: Potentiation of nitrodilator vasodilation by sGC-cGMP pathway agents in vitro; format: cell-based
# Source text: In certain embodiments, the combined application of a nitrodilator and a nitrogen oxide compound is affected by a perturbation in the sGC-cGMP pathway. Vasodilation mediated by the nitrodilator and/or nitrogen oxide compound can be further facilitated by agents that enhance the sGC-cGMP pathway. Such agents include sGC stimulators and activators, cGMP-phosphodiesterase inhibitors, and others. The sGC stimulators directly activate reduced-heme-containing sGC that generates cGMP to cause vasodilation. The sGC activators activate sGC when the heme is oxidized or the heme moiety is missing. A sGC stimulator can be riociguat or vericiguat. The sGC activator can be runcaciguat, cinaciguat, ataciguat, or kynurenine. The cGMP-phosphodiesterase inhibitors, such as sildenafil, vardenafil, and tadalafil, stabilize cGMP via preventing its degradation by phosphodiesterase-5. […] Certain embodiments include methods of treating a vascular condition or a respiratory condition in a human subject by administering a therapeutically effective amount of a nitrogen oxide compound and a cGMP-phosphodiesterase inhibitor. […] The potentiation effects of riociguat and sildenafil on vasodilation by nitrodilators including GSNO have been confirmed in vitro.
compound,measurement,setting,value
CC1(C)N([O])C(c2ccc(C(=O)O)cc2)=[N+]([O-])C1(C)C [CPTIO],effect on NTG- or GSNO-mediated relaxation,[1]; CPTIO 200 μM,does not affect
[Cl][Cu] [CuCl],enabling of inhibition of vasodilation by CPTIO,[1],enable the inhibitory effects of CPTIO
"COC(=O)[C@H](N)CCCNC(=N)N[N+](=O)[O-] [D-NAME, D-NG-Nitro arginine methyl ester]","effect of chronic pretreatment on mesenteric vasodilation by GSNO, glut-BDNIC and NTG",[2],potentiated
same,effect of pretreatment on mesenteric vasodilatory response to nitrodilators,[2],potentiated
N[C@H](CSN=O)C(=O)O [D-cysNO],femoral vasodilation in response to the SNO,[3],greatly diminished or even absent
same,Membrane permeability,[4],−
same,femoral vasodilation in response to the SNO,[5],greatly diminished or even absent
same,membrane permeability in words,[6],largely membrane-impermeable
"N[C@@H](CCC(=O)N[C@@H](CSN=O)C(=O)NCC(=O)O)C(=O)O [GSNO, S-nitroso-glutathione]",femoral vasodilation in response to the SNO,[3],greatly diminished or even absent
same,Membrane permeability,[4],−
same,N15-NOx levels in homogenate of arteries,"[7]; 5 μM GSNO luminal side, p=0.0206",lower
same,N15-NOx in extraluminal buffer,"[7]; 5 μM intraluminal GSNO, p=0.0400",higher
same,femoral vasodilation in response to the SNO,[5],greatly diminished or even absent
same,membrane permeability in words,[6],largely membrane-impermeable
same,"membrane permeability, fold less than L-cysNO",[6]; relative to L-cysNO,200 fold
same,loss of initial vasodilatory response to GSNO,"[8]; isolated vessels, after repeated exposures to GSNO",~50%
"C=CC1=C(C)c2cc3[n-]c(cc4[n-]c(cc5nc(cc1n2)C(C)=C5C=C)c(C)c4CCC(=O)[O-])c(CCC(=O)[O-])c3C.N#[O+].[Fe].[H+].[H+] [Heme-NO, nitrosyl-heme]",Membrane permeability,[4],−
COC(=O)[C@@H](N)CCCNC(=N)N[N+](=O)[O-] [L-NAME],"effect of chronic pretreatment on mesenteric vasodilation by GSNO, glut-BDNIC and NTG",[2],potentiated
same,effect of pretreatment on mesenteric vasodilatory response to nitrodilators,[2],potentiated
CNC(=N)NCCC[C@H](N)C(=O)O [L-NMMA],effect of pretreatment on mesenteric vasodilatory response to nitrodilators,[2],not observed
"N[C@@H](CSN=O)C(=O)O [L-cysNO, S-nitrosocysteine]",NO moiety released,"[9]; over one hour, presence of metal chelator in PBS",< 10%
same,"stability, fold less stable than GSNO",[9]; relative to GSNO,10 fold
same,femoral vasodilation in response to the SNO,[3],greatly diminished or even absent
same,Membrane permeability,[4],+
same,femoral vasodilation in response to the SNO,[5],greatly diminished or even absent
same,membrane permeability in words,[6],can be taken up into cells via the L-type amino acid transporter (LAT)
"O=[N+]([O-])OCC(CO[N+](=O)[O-])O[N+](=O)[O-] [NTG, nitroglycerin]",Membrane permeability,[4],+
same,EC50,[10],< 100 nM
CC1(C)CC(O)CC(C)(C)N1[O] [TEMPOL],enabling of inhibition of vasodilation by CPTIO,[1],enable the inhibitory effects of CPTIO
O=NO [nitrite],effect on vasodilatory responses to subsequent SNO infusions in femoral arteries,"[3]; rats pre-treated with L-NAME, intravenous sub-vasodilatory nitrite",potentiated
same,effect on GSNO-mediated vasodilation,[11],potentiate
same,effect on vasodilatory responses to subsequent SNO infusions in femoral arteries,"[5]; sheep pre-treated with L-NAME, intravenous sub-vasodilatory nitrite",potentiated
same,effect on NTG tolerance of coronary arteries,[12]; in vitro,reverting NTG tolerance
same,effect on NTG tolerance of coronary arteries,[12]; in vivo,reverting NTG tolerance
same,effect on vasodilatory responses to GSNO,[8]; arteries pre-exposed to 1 μM nitrite,potentiate
same,attenuation of vasodilatory response to GSNO after repeated GSNO exposure,[8]; subsequent incubation with 1 μM nitrite for 30 min,reversed
COC(=O)N(C)c1c(N)nc(-c2nn(Cc3ccccc3F)c3ncccc23)nc1N [riociguat],effect on vasodilation by nitrodilators including GSNO,[13],potentiation
CCCc1nn(C)c2c(=O)[nH]c(-c3cc(S(=O)(=O)N4CCN(C)CC4)ccc3OCC)nc12 [sildenafil],effect on vasodilation by nitrodilators including GSNO,[13],potentiation
"SOD1: superoxide dismutase, converts HNO into NO",enabling of inhibition of vasodilation by CPTIO,[1],enables inhibition of vasodilation by CPTIO
